From patent publication US6080871A, “Sulfonamides and sulfamides as H3 receptor antagonists” (James Black Foundation Limited, priority 1996, dated 2000)

Legend:
[1] = target: T1, Histamine H3 (Cavia porcellus, UniProt Q9JI35); experiment: Histamine H3 radioligand binding assay, [3H]-R-α-methylhistamine, guinea pig ileum longitudinal muscle myenteric plexus membranes; settings: 3 nM [3H]-R-α-methylhistamine, 165 min, 21±3° C., Cheng Prusoff, variance ±0.12 log units; for Ki: read-out: pK1 (binding assay) (converted)
T1 construct: ileum longitudinal muscle myenteric plexus membranes; from tissue; host or cells: ileum longitudinal muscle myenteric plexus membranes of male Dunkin Hartley guinea pigs
Description: Histamine H3 Radioligand Binding Assay
Male Dunkin Hartley guinea pigs (200-300 g) were used. The small intestine was rapidly removed (cut ~5 cm from caecum and 5 cm from stomach) and placed in ice-cold 20 mM Hepes-NaOH buffer (pH7.4 at 21±3° C.). The tissue was cut into ~10 cm segments, flushed through with ice-cold 20 mM Hepes-NaOH buffer and placed in a beaker containing fresh buffer at 4° C. 10 cm segments of ileum were threaded onto a glass pipette and the longitudinal muscle myenteric plexus was peeled away from the circular muscle using damp cotton-wool. Longitudinal muscle myenteric plexus was immediately placed in ice-cold Viaspan® solution (~100 ml for tissue from 3 guinea pigs) and placed in the refrigerator for 24 hours.
Pre-soaked tissue was weighed and minced with scissors. The tissue was then homogenised in Viaspan® using a polytron (Kinematica AG; PT-DA 3020/2TS, 3×~1-2 s). 50 ml of 500 mM Tris HCl (pH6.9 at 21±3° C.) was added to the tissue and the mixture centrifuged at 39,800×g for 12 min at 4° C. The supernatant was discarded and rehomogenised in 100 ml ice-cold 20 mM Hepes-NaOH buffer (pH7.4 at 21±3° C.) using a teflon-in-glass homogeniser (setting 10; 3×). The homogenate was recentrifuged at 39,800×g and the pellet resuspended in 20 mM Hepes-NaOH buffer (pH7.4 at 21±3° C.), to a tissue concentration of 50 mg.ml^-1, using a polytron (Brinkman, PT10, 3×~1 s).
Guinea pig ileum longitudinal muscle myenteric plexus membranes (400 μl) were incubated for 165 min at 21±3° C. in a final volume of 500 μl with 20 mM Hepes-NaOH buffer containing [^3 H]-R-α-methylhistamine (50 μl; 3 nM) and competing compound. Total and non-specific binding of [^3 H]-R-α-methylhistamine were defined using 50 μl of buffer and 50 μl of 10 μM thioperamide, respectively. The assay was terminated by rapid filtration through Whatman GF/B filters, presoaked (2 hr) in 0. 1% polyethyleneimine,using a Brandell Cell Harvester. The filters were washed (3×3 ml) with ice-cold 50 mM Tris-HCl (pH6.9 at 21±3° C.), transferred into scintillation vials, 5 ml liquid scintillation cocktail was added and after 4 hours the bound radioactivity was determined by counting (4 min) in a Beckman liquid scintillation counter.
Data are analysed using GraphPad prism and the general equation for a competition curve with variable Hill slope (nH).
Y=Non-specific binding+(Total binding-Non-specific binding)/1+10^((logIC.sbsp.50^-X).n.sbsp.H^)
X is the log concentration of competing compound, Y is the binding obtained at each concentration of X, pIC50 is the concentration of the competitor required to compete for half of the specific binding.
The IC50 is converted to the K1 using the Cheng Prusoff equation, […]
IC50 is the concentration of competitor required to compete for half the specific binding, L is the radioligand concentration used, KD is the equilibrium dissociation constant for the radioligand determined by saturation experiments.
(§1) Typical variance in the functional assay is ±0.15 log units. Typical variance in the binding assay is ±0.12 log units. This means that if the discrepancy between the two assays is greater than about 0.5 log units, then this difference on average is significant.

[2] = target: T2, H3 receptor (Cavia porcellus, UniProt Q9JI35); experiment: H3 receptor bioassay (functional assay), guinea pig ileal longitudinal muscle myenteric plexus; assay type: cell-based; settings: electrically stimulated guinea pig ileum; for Kb: antagonism of R-(α)-methylhistamine E/[A] curve, Schild's methods, variance ±0.15 log units, read-out: pKB (functional assay) (converted)
T2 construct: the longitudinal muscle layer and adhering myenteric plexus was teased away; from tissue; host or cells: ileal longitudinal muscle with adhering myenteric plexus of male Dunkin-Hartley guinea pigs
Description: The biological activity of the compounds of the examples was measured using the ileal longitudinal muscle, myenteric plexus assay described by Paton and Aboo Zar (J. Physiol. 194, 13-33 (1968)). Male Dunkin-Hartley guinea pigs (250-300 g) were employed. Briefly, a 50 cm portion of ileum proximal to the caecum was removed, after discarding the terminal 20 cm. Ileal segments (3 cm) were cleaned by passing Krebs-Henseleit buffer containing 3 μM mepyramine gently through the ileum using a Pasteur pipette (size: 13.8 cm length, 0.65 cm diameter). To avoid unnecessary damage to the tissue, Krebs-Henseleit buffer was passed through the ileal segment, while it was lying horizontally on a petri dish. Therefore, the ileum was not over-distended and the buffer flowed through with ease. Each segment was then passed over a Pasteur pipette and the longitudinal muscle layer and adhering myenteric plexus was teased away using moist cotton wool, by stroking tangentially away from the mesenteric attachment. The tissues were suspended in 20 ml organ baths containing Krebs-Henseleit buffer at 37±1° C. and gassed with […]. The tissues were ligated to two parallel stainless steel wires, situated between two platinum electrodes (0.76 cm length, 0.06 cm diameter). All measurements were recorded isometrically (Grass FTO3 transducer). Following an initial loading tension of 1 g, the tissues were stimulated with electrical pulses at a frequency of 0.1 Hz and a pulse duration of 0.5msec, as described by Kosterlitz & Watt (1968). Initially, the tissues were stimulated at supramaximal (1.3 fold times maximal) voltage for a period of 30 min and then the tissues were washed and re-stimulated. A "sighter dose" of the selective histamine H3 -receptor agonist, R-(α)-methylhistamine(0.3 μM) (Arrang et al., 1987), was administered. Upon generation of response, the "sighter dose" was removed from the tissues by "washout" (6 washes over 60 min) and during this period the electrical stimulation was switched off. The tissues were then re-stimulated and allowed to stabilise prior to the addition of drug treatments, which were allocated on a randomised block basis to the organ baths. Following the incubation period, a single cumulative E/[A] curve was obtained. The experimental E/[A] curve data was expressed as the percentage inhibition of the peak height of electrically-stimulated contraction. Antagonist affinity values were calculated from the degree of rightward shift of the R-(α)-methylhistamine E/[A] curves using Schild's methods (Arunlatcshama & Schild, 1949).
as §1

T1 sequence (Q9JI35 whole entry): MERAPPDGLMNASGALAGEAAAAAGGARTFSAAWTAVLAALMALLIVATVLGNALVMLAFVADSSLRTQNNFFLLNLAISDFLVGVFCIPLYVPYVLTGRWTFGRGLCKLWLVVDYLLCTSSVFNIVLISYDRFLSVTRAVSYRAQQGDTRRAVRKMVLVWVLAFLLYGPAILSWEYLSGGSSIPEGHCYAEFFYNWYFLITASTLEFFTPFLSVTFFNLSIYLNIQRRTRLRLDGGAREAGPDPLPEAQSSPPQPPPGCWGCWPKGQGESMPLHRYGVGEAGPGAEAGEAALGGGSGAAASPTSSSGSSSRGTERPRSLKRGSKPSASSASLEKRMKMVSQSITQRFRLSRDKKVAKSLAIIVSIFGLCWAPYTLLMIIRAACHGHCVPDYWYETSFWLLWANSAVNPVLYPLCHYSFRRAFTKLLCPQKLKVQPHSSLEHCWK
T2 sequence (Q9JI35 whole entry): as above

Row | SMILES | pK1 (binding assay) [1] | Kb [2] | Ki [1] | EC50 ([2]; printed in the pKB column, read-out: p[A]50 (functional assay) (converted))
1 | O=S(=O)(NCCc1c[nH]cn1)c1ccc2ccccc2c1 [Example 1, N-[2-(4(5)-Imidazoyl)ethyl]-2-naphthalenesulfonamide] | 7.77 | 200 nM | – | –
2 | O=S(=O)(NCCCCc1c[nH]cn1)NCc1ccc(I)cc1 [Example 44, N-[4-(4(5)-Imidazoyl)butyl]-N'-(4-iodophenyl)methyl-sulfamide] | 8.68 | 3.24 nM | – | –
3 | O=S(=O)(NCCCCCCCCCCc1c[nH]cn1)c1ccc2ccccc2c1 [Example 31, N-[10-(4(5)-Imidazoyl)decyl]-2-naphthalenesulfonamide] | 7.07 | 1620 nM | – | –
4 | O=S(=O)(NCCCc1c[nH]cn1)NCCc1ccc(Cl)cc1 [Example 56, N-[3-(4(5)-Imidazoyl)propyl]-N'-2-(4-chlorophenyl)ethyl-sulfamide] | – | 447 nM | 138 nM | –
5 | O=S(=O)(NCCCCc1c[nH]cn1)NCc1ccc(F)cc1 [Example 46, N-[4-(4(5)-Imidazoyl)butyl]-N'-(4-fluorophenyl)methyl-sulfamide] | 7.84 | 20 nM | – | –
6 | O=S(=O)(NCCCCCCc1c[nH]cn1)NCc1ccc(Cl)cc1 [Example 15, N-[6-(4(5)-Imidazoyl)hexyl]-N'-(4-chlorophenyl)methyl-sulfamide] | 8.36 | 1.7 nM | – | –
7 | O=S(=O)(NCCCCc1c[nH]cn1)NCc1ccccc1Cl [Example 43, N-[4-(4(5)-Imidazoyl)butyl]-N'-(2-chlorophenyl)methyl-sulfamide] | – | 380 nM | 56.2 nM | –
8 | O=S(=O)(NCCCCCCCc1c[nH]cn1)c1ccc2ccccc2c1 [Example 29] | 7.40 | 132 nM | – | –
9 | O=S(=O)(NCCCCCCc1c[nH]cn1)NCc1ccc(F)cc1 [Example 59, N-[6-(4(5)-Imidazoyl)hexyl]-N'-(4-fluorophenyl)methyl-sulfamide] | – | 3.72 nM | 8.32 nM | –
10 | C[C@H](Cc1c[nH]cn1)NS(=O)(=O)c1ccc2ccccc2c1 [Example 71, (R)-(+)-N-[2-(4(5)-Imidazoyl)-1-methyl-ethyl]-2-naphthalenesulfonamide] | 8.44 | – | – | 776 nM
11 | O=S(=O)(NCCCCCCCCc1c[nH]cn1)NCc1ccc(Cl)cc1 [Example 39, N-[8-(4(5)-Imidazoyl)octyl]-N'-(4-chlorophenyl)methyl-sulfamide] | – | 42.7 nM | 15.8 nM | –
12 | CN(CCCCc1c[nH]cn1)S(=O)(=O)N(C)Cc1ccc(Cl)cc1 [Example 68, N'-(4-Chlorophenyl)methyl-N,N'-dimethyl-N-[4-(4(5)-imidazoyl)butyl]-sulfamide] | – | 17 nM | 11.2 nM | –
13 | O=S(=O)(/C=C/c1ccccc1)NCCc1c[nH]cn1 [Example 20, (E)-N-[2-(4(5)-Imidazoyl)ethyl]-2-phenylethenesulfonamide] | 7.26 | > 3160 nM | – | –
14 | O=S(=O)(NCCCCc1c[nH]cn1)NCc1ccc(Cl)cc1 [Example 13, N-[4-(4(5)-Imidazoyl)butyl]-N'-(4-chlorophenyl)methyl-sulfamide] | 8.56 | 2.09 nM | – | –
15 | O=S(=O)(Cc1ccc(Cl)cc1)NCCCCCCc1c[nH]cn1 [Example 11, N-[6-(4(5)-Imidazoyl)hexyl]-(4-chlorophenyl)methanesulfonamide] | 7.95 | 9.77 nM | – | –
16 | O=S(=O)(NCCCCc1c[nH]cn1)NCCc1ccc(Cl)cc1 [Example 57, N-[4-(4(5)-Imidazoyl)butyl]-N'-2-(4-chlorophenyl)ethyl-sulfamide] | – | 11 nM | 14.5 nM | –
17 | O=S(=O)(NCCCCCCc1c[nH]cn1)NCc1ccc(Br)cc1 [Example 58] | – | 1.05 nM | 4.37 nM | –
18 | O=S(=O)(CCc1ccc(Cl)cc1)NCCCCCc1c[nH]cn1 [Example 54, N-[5-(4(5)-Imidazoyl)pentyl]-2-(4-chlorophenyl)ethanesulfonamide] | – | 15.8 nM | 10 nM | –
19 | O=S(=O)(NCCCCc1c[nH]cn1)NCc1ccc(C(F)(F)F)cc1 [Example 47, N-[4-(4(5)-Imidazoyl)butyl]-N'-(4-(trifluoromethyl)phenyl)methyl-sulfamide] | – | 3.31 nM | 2.69 nM | –
20 | CN(Cc1ccc(Cl)cc1)S(=O)(=O)NCCCCc1c[nH]cn1 [Example 70] | – | 15.8 nM | 11.2 nM | –
